Test results: BindingDB's records for PubMed 39892094 (University of Lubeck and University Medical Center …)

What was measured:
[1] = Reversal of ABCB1-mediated multidrug resistance in human A2780 ADR cells assessed as increase in doxorubicin-mediated cytotoxicity incubated for 72 hrs in presence of doxorubicin by MTT assay
[2] = Reversal of ABCC1-mediated multidrug resistance in human NCI-H69AR cells assessed as increase in doxorubicin-mediated cytotoxicity incubated for 72 hrs in presence of doxorubicin by MTT assay
[3] = Inhibition of MCT-1 in human A549 cells assessed as potentiation of 3-BP-mediated cytotoxicity by measuring decrease in cell viability incubated for 72 hrs in presence of 3-BP by MTT assay
[4] = Reversal of ABCG2 (unknown origin)-mediated multidrug resistance transfected in dog MDCK-II-BCRP cells assessed as increase in SN-38-mediated cytotoxicity incubated for 72 hrs in presence of SN-38 by MTT assay

Row | Structure (SMILES) | EC50 [1] [µM] | EC50 [2] [µM] | IC50 [3] [µM] | EC50 [4] [µM]
1 | COc1cccc(NC(=O)Cn2nc(C(=O)Nc3cccc(OC)c3)c3ccccc32)c1 | 2.01 | 8.55 |  | 
2 | O=C(Cn1nc(C(=O)Nc2ccccn2)c2ccccc21)Nc1cc(Cl)ccc1Cl | 0.089 | 33.1 | 1.89 | 0.326
3 | O=C(Cn1nc(C(=O)Nc2cccnc2)c2ccccc21)Nc1ccc(Cl)cc1 | 4.67 | 6.86 | 3.32 | 1.05
4 | COc1cccc(NC(=O)c2nn(CC(=O)Nc3ccccc3OC)c3ccccc23)c1 | 3.34 | 5.53 |  | 0.603
